39 molecules from patent US10604484B2, “Indolone compounds and their use as AMPA receptor modulators” (Janssen Pharmaceutica NV, priority 2015, dated 2020) can be followed below.

Each structure is given as a SMILES string.

The target of one test is T1, GluA1o-γ8 (Homo sapiens, UniProt P42261+Q8WXS5).
T1 construct: expressed in transfected cells
T1 sequence (P42261+Q8WXS5 fused): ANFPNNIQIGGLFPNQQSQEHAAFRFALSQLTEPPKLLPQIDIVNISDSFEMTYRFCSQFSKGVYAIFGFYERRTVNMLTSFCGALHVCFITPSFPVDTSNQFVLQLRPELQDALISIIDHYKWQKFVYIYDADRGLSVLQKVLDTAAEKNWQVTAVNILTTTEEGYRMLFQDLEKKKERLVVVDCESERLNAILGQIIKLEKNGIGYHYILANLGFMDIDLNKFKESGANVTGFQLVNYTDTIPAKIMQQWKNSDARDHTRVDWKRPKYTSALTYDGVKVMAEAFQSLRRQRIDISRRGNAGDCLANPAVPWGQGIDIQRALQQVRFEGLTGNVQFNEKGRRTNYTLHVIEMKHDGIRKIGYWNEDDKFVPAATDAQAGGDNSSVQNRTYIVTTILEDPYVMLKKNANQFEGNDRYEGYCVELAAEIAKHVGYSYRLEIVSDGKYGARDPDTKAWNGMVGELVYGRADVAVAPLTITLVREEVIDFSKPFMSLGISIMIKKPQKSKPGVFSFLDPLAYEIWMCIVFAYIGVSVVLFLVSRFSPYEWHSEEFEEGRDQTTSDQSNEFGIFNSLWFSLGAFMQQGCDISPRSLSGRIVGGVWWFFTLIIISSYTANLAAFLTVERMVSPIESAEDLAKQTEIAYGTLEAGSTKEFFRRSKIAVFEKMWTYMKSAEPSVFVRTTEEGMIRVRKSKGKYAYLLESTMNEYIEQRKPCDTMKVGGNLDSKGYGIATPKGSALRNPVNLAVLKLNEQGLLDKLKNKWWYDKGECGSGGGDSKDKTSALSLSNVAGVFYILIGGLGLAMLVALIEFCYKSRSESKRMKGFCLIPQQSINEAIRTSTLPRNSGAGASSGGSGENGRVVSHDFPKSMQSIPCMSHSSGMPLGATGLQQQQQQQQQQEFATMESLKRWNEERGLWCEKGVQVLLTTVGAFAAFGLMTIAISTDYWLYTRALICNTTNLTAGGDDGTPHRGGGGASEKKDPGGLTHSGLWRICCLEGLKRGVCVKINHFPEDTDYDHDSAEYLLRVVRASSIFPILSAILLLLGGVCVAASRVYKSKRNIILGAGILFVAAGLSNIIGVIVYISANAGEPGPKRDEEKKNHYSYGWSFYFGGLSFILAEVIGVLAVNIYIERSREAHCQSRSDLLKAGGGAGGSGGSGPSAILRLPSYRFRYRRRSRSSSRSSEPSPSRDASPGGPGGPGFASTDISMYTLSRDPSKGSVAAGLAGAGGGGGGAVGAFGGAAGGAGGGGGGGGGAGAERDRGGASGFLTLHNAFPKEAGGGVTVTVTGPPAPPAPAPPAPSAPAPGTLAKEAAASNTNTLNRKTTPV
Put plainly: Calcium flux assay (FLIPR), inhibition of glutamate response of GluA1o-γ8 channel in HEK293 cells. It counts as cell-based. The settings on record: HEK293 cells stably expressing GRIA1o-CACNG8 fusion; 15 μM glutamate; pIC50 = negative log of the IC50 in molar. The source says: This assay was used to test compounds for their ability to inhibit TARP γ8 dependent AMPA receptor activity. The AMPA receptor is a non-selective cation channel activated by glutamate. Ionotropic glutamate receptors normally desensitize too rapidly to allow detectable calcium influx in a FLIPR assay (Strange et al. (2006). “Functional characterisation of homomeric ionotropic glutamate receptors GluR1-GluR6 in a fluorescence-based high throughput screening assay.” Comb Chem High Throughput Screen 9(2): 147-158). But, this desensitization is incomplete, and a substantial steady-state current remains in the sustained presence of glutamate (Cho et al. (2007). “Two families of TARP isoforms that have distinct effects on the kinetic properties of AMPA receptors and synaptic currents.” Neuron 55(6): 890-904).
An in vitro assay was used to determine the potency of test compounds as inhibitors of the glutamate response of the channel formed by GluA1o-γ8. To ensure a 1:1 stoichiometry of GluA1o and γ8 subunits in the expressed channel, a fusion of the cDNAs for GRIA1o and CACNG8 was used. Following Shi et al (2009) “The stoichiometry of AMPA receptors and TARPs varies by neuronal cell type.” Neuron 62(5): 633-640), the C-terminus of the cDNA for GRIA1o was fused to the N-terminus of the cDNA for γ8. The linker sequence was QQQQQQQQQQEFAT. Channels expressed with this construct appear to have similar properties to channels formed by co-expression of GRIA1o with an excess of CACNG8 (Shi et al. 2009). A clonal cell line in HEK293 cells stably expressing this construct, with a geneticin selection marker, was generated for use in this assay. Cell expressing the GRIA1o-CACNG8 fusion construct were grown in a monolayer in 96- or 384-well microtiter plates. They were washed with assay buffer (135 mM NaCl, 4 mM KCl, 3 mM CaCl2, 1 mM MgCl2, 5 mM glucose, 10 mM HEPES, pH 7.4, 300 mOs) using a Biotek EL405 plate washer. The cells were then loaded with a calcium-sensitive dye (Calcium-5 or Calcium-6, Molecular Devices) and the test compounds at a range of concentrations. Calcium flux following the addition of 15 μM glutamate was monitored using a Molecular Devices FLIPR Tetra.
The fluorescence in each well was normalized to the fluorescence of negative and positive control wells. The negative control wells had no added compounds, and the positive control wells had been incubated with 10 μM CP465022 (a non-subtype-selective AMPA receptor antagonist) (Lazzaro et al. (2002). “Functional characterization of CP-465,022, a selective, noncompetitive AMPA receptor antagonist.” Neuropharmacology 42(2): 143-153). The responses to glutamate as functions of the test compound concentrations were fitted to a four-parameter logistic function. The fitted parameter corresponding to the midpoint was taken to be the potency of inhibition of the compound. The data in Table 4 below illustrates the observed potentcy for the compounds described herein. pIC50 refers to the negative log of the IC50 in molar.
Background: Calcium flux is commonly read through the fluorescence of an indicator in the cells.
Take `Cc1cccc(C)c1-c1ccc2c(c1)CC(=O)N2` [Example 1, 5-(2,6-Dimethylphenyl)indolin-2-one]: the “GluR1-γ8 pIC50” value turned out to be 6.4. On the same count and under the same terms, next, `O=C1Cc2cc(-c3c(Cl)cccc3OC(F)(F)F)ccc2N1` [Example 5, 5-[2-Chloro-6-(trifluoromethoxy)phenyl]indolin-2-one]: 7.8; `Cc1cc(-c2c(Cl)cccc2OC(F)(F)F)cc2c1NC(=O)C2` [Example 127, 5-[2-Chloro-6-(trifluoromethoxy)phenyl]-7-methyl-indolin-2-one]: 9.7; `Cc1cc(-c2c(Cl)cncc2OC(F)F)cc2c1NC(=O)C2` [Example 146, 5-(3-Chloro-5-(difluoromethoxy)pyridin-4-yl)-7-methylindolin-2-one]: 8.1.

The same test, now with this note: HEK293 cells stably expressing GRIA1o-CACNG8 fusion; 15 μM glutamate; pIC50 = negative log of the IC50 in molar; read-out: GluR1-γ8 pIC50 (converted).
On to `O=C1Cc2cc(-c3c(Cl)cccc3Br)ccc2N1` [Example 2, 5-(2-Bromo-6-chlorophenyl)indolin-2-one], for which the IC50 is 25.1 nM.

Consider `Cc1cccc(Cl)c1-c1ccc2c(c1)CC(=O)N2` [Example 3, 5-(2-Chloro-6-methyl-phenyl)indolin-2-one], for which the IC50 is 100 nM.

As for `O=C1Cc2cc(-c3c(Cl)cccc3Cl)ccc2N1` [Example 4, 5-(2,6-Dichlorophenyl)indolin-2-one], the IC50 is 31.6 nM.

`N#CCc1cccc(Cl)c1-c1ccc2c(c1)CC(=O)N2` [Example 6, 2-[3-Chloro-2-(2-oxoindolin-5-yl)phenyl]acetonitrile]: the IC50 was 31.6 nM. The same measure, in the same setting: next, `CC(C)(C#N)c1cccc(Cl)c1-c1ccc2c(c1)CC(=O)N2` [Example 81, 2-[3-Chloro-2-(2-oxoindolin-5-yl)phenyl]-2-methyl-propanenitrile]: 79.4 nM; `N#Cc1ccc(Cl)c(-c2ccc3c(c2)CC(=O)N3)c1OC(F)(F)F` [Example 115, 4-Chloro-3-(2-oxoindolin-5-yl)-2-(trifluoromethoxy)benzonitrile]: 12.6 nM. Same read-out and setting: for `O=C1Cc2cc(-c3c(Cl)cccc3OC(F)(F)F)cc(F)c2N1` [Example 117, 5-(2-Chloro-6-(trifluoromethoxy)phenyl)-7-fluoroindolin-2-one] the value was 3.16 nM; for `O=C1Cc2cc(-c3c(Cl)cccc3OC(F)F)cc(F)c2N1` [Example 118, 5-(2-Chloro-6-(difluoromethoxy)phenyl)-7-fluoroindolin-2-one], 15.8 nM; for `CC(C)(C#N)c1cccc(Cl)c1-c1cc(F)c2c(c1)CC(=O)N2` [Example 119, 2-(3-Chloro-2-(7-fluoro-2-oxoindolin-5-yl)phenyl)-2-methylpropanenitrile], 25.1 nM.

Take `COC1CCN(c2cccc(-c3cc(F)c4c(c3)CC(=O)N4)c2Cl)CC1` [Example 121, 5-(2-Chloro-3-(4-methoxypiperidin-1-yl)phenyl)-7-fluoroindolin-2-one]: the IC50 was greater than 10000 nM. Turning to `Cc1cccc(OC(F)F)c1-c1cc(F)c2c(c1)CC(=O)N2` [Example 122, 5-[2-(Difluoromethoxy)-6-methyl-phenyl]-7-fluoro-indolin-2-one], the IC50 is 15800 nM. `COc1cccc(OC(F)F)c1-c1cc(F)c2c(c1)CC(=O)N2` [Example 123, 5-[2-(Difluoromethoxy)-6-methoxy-phenyl]-7-fluoro-indolin-2-one]: the IC50 was greater than 10000 nM. On the same count and under the same terms, next, `N#Cc1ccc(OC(F)(F)F)c(-c2cc(F)c3c(c2)CC(=O)N3)c1Cl` [Example 124, 2-Chloro-3-(7-fluoro-2-oxo-indolin-5-yl)-4-(trifluoromethoxy)benzonitrile]: 12.6 nM. In the case of `Cc1cncc(C)c1-c1cc(F)c2c(c1)CC(=O)N2` [Example 125, 5-(3,5-Dimethyl-4-pyridyl)-7-fluoro-indolin-2-one], the IC50 is 251 nM.

On to `O=C1Cc2cc(-c3c(Cl)cncc3Cl)cc(F)c2N1` [Example 126, 5-(3,5-Dichloro-4-pyridyl)-7-fluoro-indolin-2-one], for which the IC50 was 316 nM. Same read-out and setting: next, `Cc1cc(-c2c(Cl)cccc2OC(F)F)cc2c1NC(=O)C2` [Example 128, 5-[2-Chloro-6-(difluoromethoxy)phenyl]-7-methyl-indolin-2-one]: 1 nM; `Cc1cc(-c2c(C)cccc2OC(F)F)cc2c1NC(=O)C2` [Example 129, 5-[2-(Difluoromethoxy)-6-methyl-phenyl]-7-methyl-indolin-2-one]: 3.16 nM; `COc1cccc(OC(F)F)c1-c1cc(C)c2c(c1)CC(=O)N2` [Example 130, 5-[2-(Difluoromethoxy)-6-methoxy-phenyl]-7-methyl-indolin-2-one]: 12.6 nM. Regarding `Cc1cc(-c2c(F)cccc2OC(F)F)cc2c1NC(=O)C2` [Example 131, 5-[2-(Difluoromethoxy)-6-fluoro-phenyl]-7-methyl-indolin-2-one], the IC50 is 5.01 nM. The same measure, in the same setting: for `Cc1cc(-c2c(Cl)cccc2C(C)(C)C#N)cc2c1NC(=O)C2` [Example 132, 2-[3-Chloro-2-(7-methyl-2-oxo-indolin-5-yl)phenyl]-2-methyl-propanenitrile] the value was 0.501 nM.

Consider `Cc1cc(-c2c(Cl)ccc(C#N)c2OC(F)(F)F)cc2c1NC(=O)C2` [Example 133, 4-Chloro-3-(7-methyl-2-oxoindolin-5-yl)-2-(trifluoromethoxy)benzonitrile], for which the IC50 was 0.126 nM. The same measure, in the same setting: next, `Cc1cc(-c2cccc(C#N)c2C)cc2c1NC(=O)C2` [Example 134, 2-Methyl-3-(7-methyl-2-oxo-indolin-5-yl)benzonitrile]: 100 nM; `Cc1cc(-c2c(C)cccc2Cl)cc2c1NC(=O)C2` [Example 135, 5-(2-Chloro-6-methyl-phenyl)-7-methyl-indolin-2-one]: 0.398 nM; `Cc1cc(-c2c(C)cccc2F)cc2c1NC(=O)C2` [Example 136, 5-(2-Fluoro-6-methyl-phenyl)-7-methyl-indolin-2-one]: 3.16 nM. The same measure, in the same setting: for `Cc1cc(-c2c(C)cccc2C(F)(F)F)cc2c1NC(=O)C2` [Example 137, 7-Methyl-5-[2-methyl-6-(trifluoromethyl)phenyl]indolin-2-one] the value was 1.26 nM. The same measure, in the same setting: for `Cc1cc(-c2c(C)cccc2C#N)cc2c1NC(=O)C2` [Example 138, 3-Methyl-2-(7-methyl-2-oxo-indolin-5-yl)benzonitrile] the value was 2.51 nM; for `COc1cccc(F)c1-c1cc(C)c2c(c1)CC(=O)N2` [Example 139, 5-(2-Fluoro-6-methoxy-phenyl)-7-methyl-indolin-2-one], 126 nM; for `Cc1cc(-c2c(F)cccc2F)cc2c1NC(=O)C2` [Example 140, 5-(2,6-Difluorophenyl)-7-methyl-indolin-2-one], 316 nM. For `Cc1cc(-c2c(F)cccc2Cl)cc2c1NC(=O)C2` [Example 141, 5-(2-Chloro-6-fluoro-phenyl)-7-methyl-indolin-2-one], the IC50 is 2 nM. In the case of `Cc1cc(-c2c(C)cccc2C)cc2c1NC(=O)C2` [Example 142, 5-(2,6-Dimethylphenyl)-7-methyl-indolin-2-one], the IC50 was 2.51 nM. Same read-out and setting: next, `Cc1cc(-c2c(Cl)cccc2C#N)cc2c1NC(=O)C2` [Example 143, 3-Chloro-2-(7-methyl-2-oxoindolin-5-yl)benzonitrile]: 5.01 nM; `Cc1cc(-c2c(Cl)cnc(C(F)(F)F)c2Cl)cc2c1NC(=O)C2` [Example 144, 5-(3,5-Dichloro-2-(trifluoromethyl)pyridin-4-yl)-7-methylindolin-2-one]: 12.6 nM; `Cc1cc(-c2c(Cl)cncc2OC(F)(F)F)cc2c1NC(=O)C2` [Example 145, 5-[3-Chloro-5-(trifluoromethoxy)-4-pyridyl]-7-methyl-indolin-2-one]: 3.16 nM. Same read-out and setting: for `Cc1cc(-c2c(Cl)cncc2Cl)cc2c1NC(=O)C2` [Example 147, 5-(3,5-Dichloro-4-pyridyl)-7-methyl-indolin-2-one] the value was 7.94 nM. As to `Cc1cc(-c2c(C)cncc2C)cc2c1NC(=O)C2` [Example 148, 5-(3,5-Dimethyl-4-pyridyl)-7-methyl-indolin-2-one], the IC50 is 10 nM.
